# Results: US12178818B2, “Methods for treating immune thrombocytopenia by administering (R)-2-[3-[4-amino-3-(2-fluoro-4-phenoxy-phenyl)pyrazolo[3,4-d]pyrimidin-1-yl]piperidine-1-carbonyl]-4-methyl-4-[4-(oxetan-3-yl)piperazin-1-yl]pent-2-enenitrile” (Principia Biopharma Inc., priority 2019, dated 2024)
# How the values were obtained:
# 251-kinase panel = assay: 251-kinase panel, kinase selectivity; type: biochemical; conditions: 1 μM
# blood platelets = assay: ex vivo platelet aggregation, standard panel of platelet agonists; type: cell-based, human; conditions: for platelet aggregation: ≤1 μM, standard panel of platelet agonists
# [1] = tested on: spontaneous canine pemphigus foliaceus; assay: spontaneous canine pemphigus foliaceus; type: in vivo
# clinical = conditions: human, in vivo
# P-gp = P-gp (Homo sapiens, UniProt P08183); conditions: not told
# Sequence of P-gp (P08183 whole entry): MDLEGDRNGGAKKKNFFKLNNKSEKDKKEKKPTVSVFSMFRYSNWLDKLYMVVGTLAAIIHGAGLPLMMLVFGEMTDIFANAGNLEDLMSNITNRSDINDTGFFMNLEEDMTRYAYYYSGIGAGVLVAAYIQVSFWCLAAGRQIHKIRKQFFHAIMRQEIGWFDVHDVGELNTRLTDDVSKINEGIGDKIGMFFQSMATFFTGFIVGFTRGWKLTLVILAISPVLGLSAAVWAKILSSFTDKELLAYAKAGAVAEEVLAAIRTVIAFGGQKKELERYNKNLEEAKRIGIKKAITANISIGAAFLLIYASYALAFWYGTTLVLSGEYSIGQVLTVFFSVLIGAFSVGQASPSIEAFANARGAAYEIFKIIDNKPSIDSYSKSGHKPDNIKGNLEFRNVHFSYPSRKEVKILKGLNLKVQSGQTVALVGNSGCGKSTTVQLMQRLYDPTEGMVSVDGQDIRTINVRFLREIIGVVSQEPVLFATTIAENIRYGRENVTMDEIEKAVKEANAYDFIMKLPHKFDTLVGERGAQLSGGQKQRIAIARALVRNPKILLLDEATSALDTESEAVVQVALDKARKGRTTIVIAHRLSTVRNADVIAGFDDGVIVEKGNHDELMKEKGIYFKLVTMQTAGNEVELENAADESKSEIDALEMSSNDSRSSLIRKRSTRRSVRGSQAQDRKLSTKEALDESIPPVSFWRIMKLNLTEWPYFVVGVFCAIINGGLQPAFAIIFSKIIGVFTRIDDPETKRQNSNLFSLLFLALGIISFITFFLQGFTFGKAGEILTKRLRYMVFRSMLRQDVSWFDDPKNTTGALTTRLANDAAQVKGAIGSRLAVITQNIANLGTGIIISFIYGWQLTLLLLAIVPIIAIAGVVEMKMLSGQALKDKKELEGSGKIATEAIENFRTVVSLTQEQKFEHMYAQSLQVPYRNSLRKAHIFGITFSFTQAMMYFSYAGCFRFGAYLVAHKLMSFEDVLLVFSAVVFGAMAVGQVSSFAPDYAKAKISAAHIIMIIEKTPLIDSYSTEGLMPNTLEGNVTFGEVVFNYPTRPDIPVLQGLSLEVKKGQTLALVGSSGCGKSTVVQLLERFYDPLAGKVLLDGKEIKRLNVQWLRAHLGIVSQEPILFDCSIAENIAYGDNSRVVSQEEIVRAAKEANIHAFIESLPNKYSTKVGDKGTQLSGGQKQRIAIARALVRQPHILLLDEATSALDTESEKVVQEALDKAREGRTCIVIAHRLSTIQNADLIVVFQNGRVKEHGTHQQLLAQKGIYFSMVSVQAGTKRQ
# Fc receptor signaling = assay: antibody mediated activation of immune cells in vitro; type: cell-based
# human B cell activation = human B cell activation in vitro; type: cell-based
# [2] = tested on: rat antibody-mediated arthus model; assay: rat antibody-mediated arthus model; type: in vivo
# [3] = in vivo
# [4] = in vivo; remark: listed apart in the source
# From the text: TEAEs include all AEs that start on or after the first dose of study medication, or AEs that are present prior to the first dose of study medication, but their severity or relationship increases after the first dose of study medication up to and including the final study medication dosing date. Within each preferred term, patients are counted only once if they had more than one event reported during the dosing period.
# Non-hematologic DLT is considered any >Grade 3 non-hematologic toxicity per the NCI Common Terminology Criteria for Adverse Events (CTCAE), version 4.0, with the following exceptions: laboratory TEAEs that are asymptomatic and return to baseline or to Grade 1 within 7 days; fatigue; nausea, vomiting or diarrhea that return to baseline or Grade 1 within 7 days; and systemic reactions (such as, e.g., fever, headache) that return to baseline or Grade 1 within 7 days. Any toxicity that, at the discretion of the Investigator, is thought to warrant withholding the study drug for more than 7 days is also considered a DLT.
# The AE Collection Period begins at the time of the first screening/eligibility assessment and ends at the end of the study for each patient. […] An AE can therefore be any unfavorable and unintended sign (including an abnormal laboratory finding, for example), symptom, or disease temporally associated with the use of an investigational product, whether or not considered related to the product. Investigators are instructed to record all AEs encountered during the clinical study in detail from the date of participant consent throughout the study follow-up period. Pre-existing conditions that worsen during a study are reported as AEs.
# Investigators are instructed to report all clinical AEs encountered during the study. The intensity of AEs is graded based on the NCI CTCAE, Version 4.0 or higher. For any AEs not found in the CTCAE, a description of intensity grading can be found below: • Grade 1: Mild; asymptomatic or mild symptoms; clinical or diagnostic observations only; intervention not indicated. • Grade 2: Moderate; minimal, local or noninvasive intervention indicated; limiting age-appropriate instrumental activities of daily living. • Grade 3: Severe or medically significant but not immediately life-threatening; hospitalization or prolongation of hospitalization indicated; disabling; limiting self-care activities of daily living.
# [5] = tested on: mouse model of anti-platelet driven immune thrombocytopenia; assay: mouse model of immune thrombocytopenia, platelet count
# [6] = tested on: rat collagen-induced arthritis model; assay: rat collagen-induced arthritis model; type: in vivo
# [7] = Phase 1 study, healthy volunteers; cited from earlier work
# pemphigus patients = assay: human pemphigus (PV; Study PRN1008-005)
smiles,measurement,setting,value
"CC(C)(C=C(C#N)C(=O)N1CCC[C@@H](n2nc(-c3ccc(Oc4ccccc4)cc3F)c3c(N)ncnc32)C1)N1CCN(C2COC2)CC1 [PRN1008, (R)-2-[3-[4-amino-3-(2-fluoro-4-phenoxy-phenyl)pyrazolo[3,4-d]pyrimidin-1-yl]piperidine-1-carbonyl]-4-methyl-4-[4-(oxetan-3-yl)piperazin-1-yl]pent-2-enenitrile]",number of kinases with >90% inhibition,251-kinase panel,6 kinases
same,platelet aggregation,blood platelets; blood of ITP patients,no effect
same,platelet aggregation,blood platelets; blood of healthy volunteers,no effect
same,collagen-induced platelet aggregation,"blood platelets; normal or ITP patient platelet samples, clinically relevant concentrations",did not impact
same,anti-inflammatory effects,[1],rapid and significant anti-inflammatory effects
same,Tmax,clinical,~2.5 h
same,half-life,clinical; po,3 to 4 h
same,P-gp substrate,P-gp,substrate
same,"antibody (IgG, IgE) mediated activation of immune cells via Fc receptor signaling",Fc receptor signaling,blocks
same,human B cell activation,human B cell activation,profoundly inhibits
same,anti-inflammatory effects,[2],rapid and significant anti-inflammatory effects
same,impact of food on extent of absorption,[3],does not appear to impact
same,"All related TEAEs, Grade 1",[4]; human,10 (21) n (%)
same,"All related TEAEs, Grade 2",[4]; human,11 (23) n (%)
same,"Related TEAEs, Abdominal distension, Grade 1/2",[4]; human,3 (10) n (%)
same,"Related TEAEs, All TEAEs, Grade 1/2",[4]; human,11 (35) n (%)
same,"Related TEAEs, Diarrhea, Grade 1",[4]; human,14 (30) n (%)
same,"Related TEAEs, Diarrhea, Grade 1/2",[4]; human,7 (23) n (%)
same,"Related TEAEs, Diarrhea, Grade 2",[4]; human,2 (4) n (%)
same,"Related TEAEs, Fatigue, Grade 1",[4]; human,5 (11) n (%)
same,"Related TEAEs, Fatigue, Grade 1/2",[4]; human,3 (10) n (%)
same,"Related TEAEs, Fatigue, Grade 2",[4]; human,1 (2) n (%)
same,"Related TEAEs, Nausea, Grade 1",[4]; human,12 (26) n (%)
same,"Related TEAEs, Nausea, Grade 1/2",[4]; human,8 (26) n (%)
same,"Related TEAEs, Nausea, Grade 2",[4]; human,1 (2) n (%)
same,dose-limiting toxicities,[4],No dose-limiting toxicities were observed
same,related serious adverse events,[4],No related serious adverse events were reported
same,thrombotic events,[4],no thrombotic events
same,treatment related bleeding or thrombotic events,[4],no reported treatment related bleeding or thrombotic events
same,platelet decrease from baseline,"[5]; 10 mg/kg/d, anti-platelet challenge (vehicle 83.1%)",71.9%
same,platelet-loss (consumption),[5]; mouse model of immune thrombocytopenia,significant dose dependent reduction
same,anti-inflammatory effects,[6],rapid and significant anti-inflammatory effects
same,most commonly reported adverse events,[7],"gastrointestinal adverse events, including nausea/vomiting and diarrhea"
same,serious adverse events or deaths,[7],No serious adverse events or deaths were reported
same,onset of clinical effect in most pemphigus patients,pemphigus patients; Study PRN1008-005,≤ 4 weeks
same,anti-inflammatory effects,pemphigus patients; human pemphigus vulgaris (PV),rapid and significant anti-inflammatory effects
same,CYP3A inhibitor,CYP3A,inhibitor
same,CYP3A substrate,CYP3A,substrate
